Laboratory results as given in publication PMC3161871, “Heteroarylketones inhibit astroglial interleukin-6 expression via a STAT3/NF-κB signaling pathway” (Journal of Neuroinflammation, 2011).

Experiments:
[1] = test system: IL-6 mRNA expression in U343 cells; assay: OSM-induced IL-6 mRNA expression in U343 cells (qRT-PCR time course); format: cell-based, human; details: 20 μM compound
Method: (§1) The human glioma cell line U343 [34] was maintained in DMEM containing 10% fetal bovine serum and 60 μg/ml gentamycin (Invitrogen, Darmstadt, Germany) at 37°C in a 10% CO2 atmosphere.
Total RNA of cultured cells and homogenized mouse brain tissue samples was isolated using RNA isolation kit "NucleoSpin RNA II" from Macherey and Nagel. RNA quantity was measured by spectrophotometrical quantification (NanoDrop 2000, Peqlab, Erlangen, Germany). Total RNA (0.5 μg) was transcribed to cDNA using Superscript III and oligo-dT primer (Invitrogen, Darmstadt, Germany). Quantitative real-time PCR was performed with QuantiFast SYBR Green PCR Master mix (Qiagen, Hilden, Germany) using Rotorgene 3000 system (Corbett, Sydney, Australia). Gene expression was normalized to the expression of three reference genes glyceraldehyde 3-phosphate dehydrogenase (GAPDH), glucose-6-phosphate dehydrogenase (G6PDH) and hypoxanthine-guanine phosphoribosyltransferase (HPRT). Primers for PREP (5'-[…]-3'; 5'- […]-3') and IL-6 (5'-AAAGGACGTCACATTGCA-3'; 5'-[…]-3') were designed using the Primer3 Software (http://frodo.wi.mit.edu/). Data were analyzed by Rotorgene 3000 Software version 6.0 by comparative quantitation. The appropriate size of PCR products was confirmed by gel-electrophoresis stained with ethidium bromide.
To analyze the time-course of OSM-induced IL-6 expression, U343 cells were incubated with OSM for different periods of time as indicated in figure 1B. Amounts of IL-6 mRNA and protein were subsequently quantified by qRT-PCR and by ELISA, respectively. […] Significant induction of IL-6 protein was detected in the conditioned medium as early as 3 h post stimulation and reaching a maximum at 24 h.
To reveal whether bioactivity of HAK compounds is based on suppression of IL-6 protein biosynthesis or on interference with IL-6 mRNA expression OSM-treated U343 cells were incubated with 20 μM of compound HAK-2 for different periods of time. […] Therefore, it is very likely that the relevant molecular target of HAK compounds is involved in the OSM-induced signal transduction process not earlier than 6 h after onset of the stimulation.
Figure 4 Time course of OSM-induced IL-6 mRNA expression in U343 cells treated with compound HAK-2. […] U343 cells were stimulated with 100 ng/ml OSM and treated with 0.1% DMSO as solvent control (solid line, black triangle) or 20 μM HAK-2 (dashed line, white triangle). Samples were harvested at time points indicated to extract total RNA. IL-6 mRNA expression was analyzed by qRT-PCR. All data points are presented as mean ± SD, and were obtained from experiments carried out in quadruplicate. Statistical analysis were performed between control and HAK-2 samples from same time point. ns, not significant; ***p < 0.001.

[2] = test system: LPS-induced IL-6 expression in C57/B6 mice; assay: LPS-induced acute septic shock model (IL-6 in plasma, hippocampus, cortex); format: in vivo, mouse; details: 1 mg/kg LPS i.p., HAK-2 in parallel, 2 h
Method: A total number of 20 C57/B6 mice at the age of 5 months with an initial body weight of 22 g to 30 g was analyzed in this study. Mice were randomly assigned to 2 groups of control mice (injection of saline or LPS; n = 6 each) and 1 group of LPS-treated mice co-injected with compound HAK-2 (n = 8). Animals were housed at the Experimental Animal Core Facility of the University of Leipzig. The study was approved by the Regierungspräsidium Leipzig, License # TVV 28/07 on November 14, 2007. To induce septic shock and acute inflammation, 14 mice were injected intraperitoneally (i.p.) with 1 mg LPS (Serotyp 055:B5)/kg body weight. Saline injection i.p. was used as control treatment (n = 6). […] Two hours post treatment mice were sacrificed by CO2 inhalation and tissue samples from hippocampus and cortex as well as plasma were prepared as described later.
Mouse brain samples for qRT-PCR were prepared from 6 - 8 animals per group. After removal of the brain, the tissue samples were flushed shortly with ice cold saline and placed briefly on filter paper. Cortex and hippocampus were prepared, weighted and snap frozen in liquid nitrogen. Samples were stored at -80°C until RNA isolation. […]
Total RNA of cultured cells and homogenized mouse brain tissue samples was isolated using RNA isolation kit "NucleoSpin RNA II" from Macherey and Nagel. RNA quantity was measured by spectrophotometrical quantification (NanoDrop 2000, Peqlab, Erlangen, Germany). […] Quantitative real-time PCR was performed with QuantiFast SYBR Green PCR Master mix (Qiagen, Hilden, Germany) using Rotorgene 3000 system (Corbett, Sydney, Australia). […] Data were analyzed by Rotorgene 3000 Software version 6.0 by comparative quantitation. […]
Figure 6 Suppression of LPS-induced IL-6 expression in vivo by compound HAK-2. […] After 2 hours treatment, samples from hippocampus (A), cortex (B) and plasma (C) were prepared and analyzed by qRT-PCR and ELISA, respectively. […] Statistically significant differences between LPS group and LPS + HAK-2 group were calculated using the unpaired t-test (*p < 0.05; **p < 0.01; ***p < 0.001).

[3] = test system: OSM-stimulated IL-6 secretion from U343 cells; assay: OSM-induced IL-6 release from U343 glioma cells (IL-6 ELISA of conditioned medium); format: cell-based, human
Method: as §1
Measurements of IL-6 in conditioned medium and murine plasma samples were done by means of human- or murine-specific IL-6 Cytoset kits (Invitrogen, Darmstadt, Germany) according to manufacturer's protocols.
Using the characterized cell culture model of OSM-induced IL-6 expression, our in-house compound libraries were screened for potent IL-6 expression inhibitors. Human U343 glioma cells were treated with 100 ng/ml OSM for 24 h. The analysis by IL-6 ELISA identified a set of structurally related compounds as potent inhibitors of IL-6 secretion (Table 1). […] HAKs with proline in position P1 are known from the literature as inhibitors of prolyl endopeptidase (PREP), a proline-specific serine protease.

## C[C@H](NC(=O)OCc1ccccc1)C(=O)N1CCC[C@H]1C(=O)c1nc2ccccc2s1 [HAK-2, Z-Ala-Pro-BTh]
[1]; 100 ng/ml OSM
  Inhibition of OSM-induced IL-6 mRNA expression (time course): strong inhibition
[1]; 100 ng/ml OSM, 6 h post stimulation
  Effect on second IL-6 mRNA expression peak: completely suppresses
[1]; 1 h post OSM stimulation
  Effect on first IL-6 mRNA peak: insensitive
[2]
  Reduction of induced IL-6 mRNA in cortex: 53%
  Reduction of induced IL-6 mRNA in hippocampus: 60%
  Reduction of plasma level of IL-6 protein vs LPS alone: 55%
[3]; 100 ng/ml OSM, 24 h, IL-6 release of vehicle-treated cells set to 100% (n = 2), mean ± SD
  Remaining IL-6 expression [% of control]: 18.7 ± 3.87 % of control
[3]; OSM-stimulated
  Effect on OSM-induced IL-6 secretion (in words): significantly reduced
